Measured values reported in patent US20040138312A1, “Methods for the treatment of neurodegeneration” (priority 2002, published 2004).

Assays:
Format in all cases: in vivo, C57B1/B6 type mice
[1] = system: dopaminergic neurons in the substantia nigra (SN); experiment: Neuron counting (tyrosine hydroxylase-labeled cells) in substantia nigra of MPTP-treated mice; settings: for Neuron loss in the substantia nigra versus MPTP-treated animals: 3 mg/kg/day s.c. mini-pump 14 days, 55-60 days post MPTP; for Average Neuron Count (statistical error): substantia nigra, 3 mg/kg/day s.c. mini-pump 14 days + MPTP 40 mg/kg s.c., Control 60, Vehicle + MPTP 25
Description: (§1) Between 55 and 60 day post MPTP injection, the mice are sacrificed using sodium nembutol. Mouse brains are perfused with phosphate buffered saline followed by Lana's fixative (paraformaldehyde and picric acid). The brains are removed and placed in Lana's fixative for 7 to 10 days. The brains are then sectioned coronally at 50 micrometers using a vibratome. And the sections stained with an antibody to tyrosine hydoxylase, the rate limiting enzyme in dopamine synthesis. The section was then examined under microscope at 100× magnification. Tissue slices (−2.9 mm and −3.6 mm posterior to Bregma were selected for cell counting in the SN and VTA. These sections are at the midpoint of the rostral half and the midpoint of the cauldual half of SN, respectively. Each TH-labeled cell that is clearly visible that has between 2 and 6 neurites is considered a neuron. An overall average count for each animal is calculated from the four sections (rostral and caudal, left and right). An average is obtained for the four sections. Separate analyses are performed on the neuron counts from SN and VTA. These counts are analyzed using a repeated measures ANOVA, following by tests of the between groups effect using Fisher's HSD method.
(§2) Mice that receive systemic injections of the pyridine toxin 1-methyl-4-phenyl-1,2,3,6-tetrahydropyridine (MPTP) selectively lose large numbers of dopaminergic neurons in the substantia nigra (SN) and the ventral tegmental area (VTA). Loss of dopamine cells in the SN mimics the clinical condition seen in Parkinson's disease. Loss of such cells in the VTA may contribute to the cognitive deficits seen in Parkinson's and Alzheimer's disease, due to these neurons' projections into the frontal cortex.
(§3) 50 C57B1/B6 type mice (8-12 weeks old) are allowed to acclimate for 12-14 days before experimental use. The mice are then randomly assigned to the following groups: MPTP plus DMSO vehicle; vehicle alone, MPTP plus brimonidine (3 mg/kg/day), MPTP plus AGN 197075 (3 mg/kg/day), and MPTP plus AGN 196923 (3 mg/kg/day)).
Four out of the 5 groups of mice receive an infusion of a test compound (or of vehicle containing no compound). These infusions are administered via subcutaneous implanted osmotic mini-pump over a 14 day period at a flow of 0.25 microliters/hour. Three days following implantation of the pumps, the mice are given the Open Field and Tail Hanging tests, along with the group of control mice, who are not implanted with mini-pumps. Immediately following the tests, the pump containing mice were given a 40 mg/kg injection of MPTP subcutaneously. All groups are then given the Open Field and Tail Hanging tests at 10-12 days and 30-40 days following MPTP treatment. The Open Field, and Tail Hanging tests are given at 50-55 days post MPTP treatment.

[2] = system: dopaminergic neurons in the ventral tegmental area (VTA); experiment: Neuron counting (tyrosine hydroxylase-labeled cells) in ventral tegmental area of MPTP-treated mice; settings: 3 mg/kg/day s.c. mini-pump 14 days; MPTP alone 28% fewer neurons than Control
Description: as §1, §2
as §3, with “mg/kg/day)). […]” for “mg/kg/day)).”

MPTP-treated mice [3] = experiment: Tail Hanging test (forelimb placement) in MPTP-treated mice; settings: during the period that the compound is administered; 3 mg/kg/day s.c. mini-pump
Description: Mice are hung by their tails 3 times each, for approximately 10 seconds each time. Each mouse is hung by the base of its tail about 30 cm above the surface of a table until the mouse turns either left or right. A left turn is given a score of 0 and a right turn is given a score of 1.
Forelimb placement is also noted during tail hanging. The placement of the limbs is given a score on a 4 point scale. Extended limbs, or those placed above the head are given a score of 0. Limbs which are clasped or held against the body are given a score of 3. Scores of 1 or 2 are assigned for relative stages between the two extremes. Hindlimb placement is also scored as below.
as §2, §3
In the presently described assays, each mouse is then given an initial Open-Field test and a Tail Hanging test. The Open Field test is the most frequently used behavioral assay of MPTP-treated mice, and appears to be sensitive to loss of dopaminergic input from the substantia nigra. The Tail-Hanging test is sensitive to direct striatal damage; the Nest Building test is sensitive to loss of striatal input from the frontal cortex. […]
(§4) For all behavioral tests, the results are first analyzed using a repeated measures ANOVA, following by tests of the between groups effect using Fisher's HSD method.

MPTP-treated mice [4] = experiment: Open-Field test in MPTP-treated mice; settings: for Open field activity compared with the vehicle group: 3 mg/kg/day s.c. osmotic mini-pump 14 days
Method: Each animal is placed in a clear plastic open field box with two rows of photo-beams mounted on the sides to distinguish be5tween horizontal (i.e. distance traveled) and vertical (i.e. “rears”) movements. Ambient conditions are low noise and dim lighting. The animal's movements within the box are measured for 5 minutes, and calculated from records of the number and type of “beam-breaks” or photo-beam crossings. On the last Open Field test, only rears are counted, and classified as either “supported” or “unsupported”. Supported rears are when an animal places at least one forelimb on the side wall of the box when a rear is recorded. In an unsupported rear the mouse is supported solely by hindlimbs. These rears are distinguished by videorecording. The number of unsupported rears is the most reliable measure of dopamine neuron loss in this test.
as §2, §3
In the presently described assays, each mouse is then given an initial Open-Field test and a Tail Hanging test. […]
as §4

Structure (SMILES) | Neuron loss in the substantia nigra versus MPTP-treated animals [1] | Average Neuron Count (statistical error) [1] | Reduction of MPTP-induced neuron loss in the Ventral Tegmental area [2] | Impairment of forelimb extensions (tail hang test) (MPTP-treated mice [3]) | Open field activity compared with the vehicle group (MPTP-treated mice [4]; 10 days post MPTP) | Number of unsupported rears compared with vehicle (MPTP-treated mice [4]; 3 mg/kg/day s.c. mini-pump, 50-60 days post MPTP treatment) | Open field activity compared with the vehicle group (MPTP-treated mice [4]; 10 and 30 days post MPTP (40 mg/kg s.c.))
CCC1=CC(Cc2c[nH]cn2)CCC1 (stereo not drawn) [AGN 196923] | significantly less neuron loss | 35 (±2) | about 10% | no such trend | significant reduces the amount of activity |  | 
OCCNC(=S)NCc1cccc(Cl)c1F [AGN 197075] | significantly less neuron loss | 37 (±2) | about 10% | significantly reduces this impairment |  | significantly more unsupported rears | 
Brc1c(NC2=NCCN2)ccc2nccnc12 [brimonidine, reference compound] | significantly less neuron loss | 32 (±1) | about 10% | no such trend |  |  | no alteration in this increase of activity
